One assay deals with diabetic nephropathy. Particulars: patients; Lewis (1993); cited from earlier work.
Assay [1] has as its system mouse models of multiple sclerosis, renal ischemia-reperfusion injury, ureter obstruction, diabetic nephropathy; rat model of arthritis. The note with it: Tesch (2008); cited from earlier work.
The test system of a further assay is MCP-1. Particulars: Yokochi (2001); Yamada (2004); cited from earlier work.
The test system of the next assay is monocytes. Particulars: Yokochi (2001); cited from earlier work.
Assay [2] deals with T1, AT1R-Rluc8 and CCR2 (Homo sapiens, UniProt P30556+P41597).
T1 construct: expressed in transfected cells; host or cells: HEK293FT
T1 sequence (P41597 whole entry, one chain of several): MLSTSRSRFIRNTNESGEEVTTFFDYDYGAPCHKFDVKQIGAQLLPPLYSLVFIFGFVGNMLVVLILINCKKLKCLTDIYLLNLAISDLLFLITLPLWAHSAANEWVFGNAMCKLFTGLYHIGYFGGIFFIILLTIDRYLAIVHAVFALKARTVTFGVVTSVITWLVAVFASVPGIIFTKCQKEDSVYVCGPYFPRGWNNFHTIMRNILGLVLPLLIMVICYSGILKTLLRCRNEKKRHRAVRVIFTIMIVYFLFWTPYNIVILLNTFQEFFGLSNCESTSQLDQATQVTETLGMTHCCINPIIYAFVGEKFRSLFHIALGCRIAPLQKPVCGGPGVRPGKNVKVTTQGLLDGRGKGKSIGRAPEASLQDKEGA
Kind of assay: Inositol phosphate (IP1) production (Example 4, bottom panel). The assay is classed as cell-based. Particulars: HEK293FT cells, FIG. 6 bottom; for AngII-induced IP1 production, cells co-expressing AT1R-Rluc8 and CCR2 / MCP-1-induced IP1 production, cells co-expressing AT1R-Rluc8 and CCR2: antagonist 10 μM; for AngII-induced IP1 production, cells co-expressing AT1R-Rluc8 and CCR2: 100 nM AngII; for MCP-1-induced IP1 production, cells co-expressing AT1R-Rluc8 and CCR2: 100 nM MCP-1.
From the text: (§3) Data represent mean±SEM of three independent experiments performed in triplicate.

Assay [3] has as its target T2, AT1R-Rluc8 (Homo sapiens, UniProt P30556).
T2 construct: expressed in transfected cells; host or cells: HEK293FT
T2 sequence (P30556 1-359): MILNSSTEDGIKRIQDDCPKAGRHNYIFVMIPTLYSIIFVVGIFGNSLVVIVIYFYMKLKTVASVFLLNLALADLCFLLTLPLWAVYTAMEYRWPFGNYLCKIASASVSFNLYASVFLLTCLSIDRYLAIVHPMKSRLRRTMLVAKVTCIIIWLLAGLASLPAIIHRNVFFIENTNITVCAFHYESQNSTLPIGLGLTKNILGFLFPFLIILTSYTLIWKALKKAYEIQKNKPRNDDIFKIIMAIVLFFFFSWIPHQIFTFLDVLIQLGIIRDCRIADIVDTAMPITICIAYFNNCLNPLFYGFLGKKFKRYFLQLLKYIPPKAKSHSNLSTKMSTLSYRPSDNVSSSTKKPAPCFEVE
The assay is classed as cell-based. The note with it: HEK293FT cells; antagonist 10 μM; 100 nM AngII; FIG. 5 middle.

The target of assay [4] is CCR2-Rluc8 and HA-tagged AT1R (Homo sapiens, UniProt P30556+P41597). Particulars: HEK293FT cells, FIG. 7 bottom; for MCP-1-induced BRET, CCR2-Rluc8, β-arrestin2-Venus and HA-tagged AT1R: 100 nM MCP-1. On the technique in general: In BRET a luciferase serves as donor, and the signal depends on an acceptor being close.
Sequence of CCR2-Rluc8 and HA-tagged AT1R (P41597 whole entry, one chain of several): as the sequence (P41597 whole entry, one chain of several) above
Assay [5] addresses T2, AT1R-Rluc8. Description: Inositol phosphate (IP1) production (Example 4, top panel). Particulars: HEK293FT cells; antagonist 10 μM; 100 nM AngII; no CCR2; FIG. 6 top. It counts as cell-based.
For assay [6], the target named is T3, AT1R-Rluc8 and the untagged CCR2 (Homo sapiens, UniProt P30556+P41597).
T3 construct: expressed in transfected cells; host or cells: HEK293FT
T3 sequence (P41597 whole entry, one chain of several): as the sequence (P41597 whole entry, one chain of several) above
It counts as cell-based. Particulars: HEK293FT cells, FIG. 5 bottom; for MCP-1-induced BRET, AT1R-Rluc8, β-arrestin2-Venus and untagged CCR2: 100 nM MCP-1.
From the text: as §3
HEK293FT cells were transiently transfected with plasmids coding for β-arrestin2-Venus and the indicated receptors: CCR2-Rluc8 (top panel), AT1R-Rluc8 (middle panel) or AT1R-Rluc8 and the untagged CCR2 (bottom panel).

Assay [7] has as its target T2, AT1R-Rluc8. Kind of assay: Inositol phosphate (IP1) production (Example 6, top panel). It counts as cell-based. Particulars: HEK293FT cells; antagonist 10 μM; 100 nM AngII; no CCR2; FIG. 8 top. As to the method:
(§1) Data are shown as induced IP1 (arbitrary units).
(§2) The cells were then lysed by adding the HTRF® assay reagents, the Terbium Cryptate-labeled anti-IP1 antibody, and the d2-labeled IP1 analog, previously diluted in the lysis buffer containing 1% Triton X-100. The assay was incubated for 1 hour at room temperature, and Terbium Cryptate fluorescence and the time resolved FRET signal were measured 50 μs after excitation at 340, 620, and 665 nm, respectively, using the EnVision 2102 multilabel plate reader (PerkinElmer). Data are shown as induced IP1 (arbitrary units). The IP-One Tb kit is a competition assay and so induction of IP1 results in a decrease in absolute assay signal. Therefore, the induced IP1 (arbitrary units) is generated by subtracting the ligand-induced assay signal from the basal assay signal.

For assay [8], the target named is T1, AT1R-Rluc8 and CCR2. Kind of assay: Inositol phosphate (IP1) production (Example 6, bottom panel). It counts as cell-based. Particulars: HEK293FT cells, FIG. 8 bottom. As to the method: as §1, §2

“Also recorded” adds a separate entry of the source.

For `C[C@H](CS)C(=O)N1CCC[C@H]1C(=O)O` [captopril], in the assay with diabetic nephropathy, the “progression of diabetic nephropathy” value is reported as “did not halt the progression of diabetic nephropathy in the vast majority of patients”.
Take “3-oxygermylpropionic acid polymer [Propagermanium]”: in assay [1], the “inflammation in mouse models of multiple sclerosis, renal ischemia-reperfusion injury, ureter obstruction, diabetic nephropathy and a rat model of arthritis” value (“inflammation in mouse models” for short) is on record as “suppress inflammation”. The MCP-1 binding result in the assay with MCP-1 is reported as “does not inhibit”. Moreover, in the assay on monocytes, the “in vitro chemotactic migration of monocytes by MCP-1” value is reported as “specifically inhibit; also recorded: inhibits”.
Turning to `CCCCC1=NC2(CCCC2)C(=O)N1Cc1ccc(-c2ccccc2-c2nn[nH]n2)cc1` [Irbesartan, 2-butyl-3-({4-[2-(2H-1,2,3,4-tetrazol-5-yl)phenyl]phenyl}methyl)-1,3-diazaspiro[4.4]non-1-en-4-one], at AT1R-Rluc8 and CCR2 [2], the “AngII-induced IP1 production, cells co-expressing AT1R-Rluc8 and CCR2” value was “substantially inhibiting”; the “MCP-1-induced IP1 production, cells co-expressing AT1R-Rluc8 and CCR2” value is “partially reduced”. For the same compound, on AT1R-Rluc8 [3], the “AngII-induced BRET response, AT1R-Rluc8 and β-arrestin2-Venus” value is recorded as “substantially blocked”. Besides, in assay [4] (antagonist 10 μM, 100 nM AngII), the “AngII-induced BRET, CCR2-Rluc8, β-arrestin2-Venus and HA-tagged AT1R” value is reported as “partially blocked”. In assay [4] (antagonist 10 μM), the “MCP-1-induced BRET, CCR2-Rluc8, β-arrestin2-Venus and HA-tagged AT1R” value was “not the MCP-1-promoted BRET signal”. For the same compound, the “AngII-induced IP1 production, cells expressing AT1R-Rluc8” value at AT1R-Rluc8 [5] is reported as “substantially abolished”. Moreover, the “AngII-induced BRET, AT1R-Rluc8, β-arrestin2-Venus and untagged CCR2” value in [6] (antagonist 10 μM, 100 nM AngII) is “substantially block”. In addition, the “MCP-1-induced BRET, AT1R-Rluc8, β-arrestin2-Venus and untagged CCR2” value in assay [6] (antagonist 10 μM) is “not the MCP-1-induced BRET”.
Take `CCO[C@H]1CN(C2CCC(O)(c3ccc4c(c3)OCO4)CC2)C[C@@H]1NC(=O)CNC(=O)c1cccc(C(F)(F)F)c1` (stereo partly drawn) [INCB3344]: in assay [1], the “inflammation in mouse models” value is “suppress inflammation”.
For the compound `Cc1ccc2c(c1)C1(CCN(CCc3nc(-c4ccccc4)oc3C)CC1)OC(=O)N2` [RS504393], the “AngII-induced IP1 production, cells co-expressing AT1R-Rluc8 and CCR2” value is reported as “little effect” at AT1R-Rluc8 and CCR2 [2]; “little effect” on AT1R-Rluc8 and CCR2 [8] (antagonist 10 μM, 100 nM AngII). Besides, the “MCP-1-induced IP1 production, cells co-expressing AT1R-Rluc8 and CCR2” value at AT1R-Rluc8 and CCR2 [2] was “substantially and selectively inhibited”. In addition, the “AngII-induced BRET response, AT1R-Rluc8 and β-arrestin2-Venus” value on AT1R-Rluc8 [3] is listed as “not RS504393 substantially blocked”. Moreover, the “MCP-1-induced BRET, CCR2-Rluc8, β-arrestin2-Venus and HA-tagged AT1R” value in assay [4] (antagonist 10 μM) is recorded as “substantially inhibited”. Also, in assay [4] (antagonist(s) 10 μM, 100 nM MCP-1 and AngII), the “BRET response with combined treatment with MCP-1 and AngII, CCR2-Rluc8 and HA-tagged AT1R” value is given as “a substantial BRET signal remained”. Further, the “inflammation in mouse models” value in [1] was “suppress inflammation”. For the same compound, the “AngII-induced IP1 production, cells expressing AT1R-Rluc8” value was “not RS504393, substantially abolished” at AT1R-Rluc8 [5] and “not RS504393, abolished” on AT1R-Rluc8 [7]. Moreover, in assay [6] (antagonist 10 μM), the “MCP-1-induced BRET, AT1R-Rluc8, β-arrestin2-Venus and untagged CCR2” value was “partially blocked”. Besides, the “MCP-1-induced IP1 response, cells co-expressing AT1R-Rluc8 and CCR2” value on AT1R-Rluc8 and CCR2 [8] (antagonist 10 μM, 100 nM MCP-1) is “substantially and selectively inhibited”.
As to “MCP-1: Monocyte chemotactic protein-1, also known as monocyte chemoattractant protein-1”, the “agonist-stimulated IP1 response, cells co-expressing AT1R-Rluc8 and CCR2” value with AT1R-Rluc8 and CCR2 [2] (100 nM agonist) is listed as “seems to stimulate a partial IP1 response”; with AT1R-Rluc8 and CCR2 [8] (100 nM agonist), “seems to stimulate a partial IP1 response”. Besides, in assay [6] (100 nM agonist), the “agonist-induced BRET, AT1R-Rluc8, β-arrestin2-Venus and untagged CCR2” value is reported as “induced BRET increases to different degrees”.

(Values after patent publication US12083102B2, “Method for treating inflammatory disorders” (DIMERIX BIOSCIENCE PTY LTD, priority 2011, dated 2024).)
